# Where two headings read alike, the source gives them in different places.
# Experiments:
# [1] = system: Non-infected HFF; test: TMRE uptake assay (mitochondrial membrane potential), non-infected HFF; format: cell-based, human; details: 0.5 μM, 3.5 h
# Experimental: (§1) 5 × 10^5 HFF were seeded into T25 culture flasks in DMEM complete medium and maintained in culture for 72 h to reach ⁓80% confluency. HFF monolayers were left either non-infected or were infected with 2 × 10^5 T. gondii Me49 tachyzoites. After another 48 h, the medium was removed from infected and non-infected T25 flasks and was replaced either by medium containing 0.5 μM RU-SDX, or in the case of non-treated controls, medium containing 0.05% DMSO. As positive controls, the two mitochondrial uncouplers FCCP and CCCP were applied at a concentration of 80 and 50 μM, respectively. PYR was applied at 0.5 μM as a control drug not affecting the MMP, and RU-adenine, used as a conjugate shown earlier to impact on the mitochondrial ultrastructure in T. gondii ([Anghel et al., 2021]; [Desiatkina et al., 2022b]), was also tested at 0.5 μM ([Anghel et al., 2021]; [Desiatkina et al., 2022b]). […] Fluorescence was measured using a Hidex Sense microplate reader instrument ([…]) with the excitation wavelength 544/20 nm and emitted light collected at 590/20 nm. Value from wells belonging to the same experimental condition were summed and the mean TMRE uptake in each condition was calculated from three biological replicates.
# [2] = system: T. gondii-infected HFF; test: TMRE uptake assay (mitochondrial membrane potential), T. gondii-infected HFF; format: cell-based, Toxoplasma gondii Me49 in human HFF; details: 0.5 μM, 3.5 h
# Experimental: as §1
# [3] = system: T. gondii β-gal tachyzoites; test: T. gondii β-Gal tachyzoite proliferation in HFF monolayers (β-galactosidase fluorometric assay); format: cell-based, Toxoplasma gondii
# Experimental: Effects of drugs on the proliferative capacity of T. gondii tachyzoites were investigated using a transgenic T. gondii RH strain constitutively expressing β-Galactosidase (T. gondii β-Gal ([Dc et al., 1997]);). Assays were carried out in 96 well plates in the presence or absence of the different compounds. For the quantification of β-Galactosidase activity, a fluorometric assay was applied as previously described ([Desiatkina et al., 2021]; [Păunescu et al., 2021]).
# [4] = system: HFF; test: HFF host cell cytotoxicity, Alamar blue viability assay; format: cell-based, human; details: 72 h, uninfected HFF
# Experimental: (§2) To determine cytotoxicity of compounds on host cells, HFF were grown to confluency in 96 well plates and were treated with different concentrations of the drugs solubilized in medium during 72 h at 37 °C/5% CO2, or were treated with the corresponding concentration of DMSO only ([Desiatkina et al., 2020]; [Holzer et al., 2023]; [Păunescu et al., 2021]). The Alamar blue viability assay was used as previously described ([Desiatkina et al., 2020], [2021], [2022a], [2022b]; [Holzer et al., 2023]; [Păunescu et al., 2021]). In short, resazurin was added to each well at 0.01 mg/ml, and subsequently fluorescence of the produced resorufin was measured at excitation wavelength 544/20 nm and emission wavelength 590/20 nm using a Hidex Sense microplate reader (Hidex, Turku, Finland).
# [5] = system: T. gondii β-gal tachyzoites; details: 2021, cited from earlier work
# [6] = HFF host cell cytotoxicity, Alamar blue viability assay; format: cell-based, human; details: human, uninfected HFF cells (confluent monolayer), read-out: viability (% of control ± SD)
# Experimental: as §2
structure (smiles),measurement,setting,value
"CCc1nc(N)nc(N)c1-c1ccc(Cl)cc1 [PYR, Pyrimethamine, reference compound]",TMRE fluorescence intensity / TMRE uptake (percentage of non-treated control = 100%),[1],99%
same,TMRE fluorescence intensity / TMRE uptake (percentage of non-treated control = 100%),[2],106%
CC(C)(C)c1ccc(C[S-])cc1.CC(C)(C)c1ccc(C[S-])cc1.Cc1ccc(C(C)C)cc1.Cc1ccc(C(C)C)cc1.O=C(O)Cc1ccc([S-])cc1.[Cl-].[Ru+2].[Ru+2] [RU],proliferation (% of control ± SD),[3]; 1.25 μM,^∗64 ± 10%
same,proliferation (% of control ± SD),[3]; 2.5 μM,^∗∗∗12 ± 2%
same,proliferation (% of control ± SD),[3]; 5 μM,^∗∗∗0 ± 0%
same,viability (% of control ± SD),[4]; 2.5 μM,100 ± 10%
same,viability (% of control ± SD),[4]; 5 μM,70 ± 10%
same,viability (% of control ± SD),[4]; 10 μM,0 ± 0%
same,proliferation (% of control ± SD),"[5]; 1 μM, ref Păunescu et al.",^a110 ± 2%
same,proliferation (% of control ± SD),"[5]; 1.1 μM, ref Păunescu et al.",^a114 ± 2%
"COc1ncnc(NS(=O)(=O)c2ccc(N)cc2)c1OC [SDX, Sulfadoxine]",activity at 1.25 µM,"[3]; Toxoplasma gondii, 1.25 μM, read-out: proliferation (% of control ± SD)",127%
same,activity at 2.5 µM,"[3]; Toxoplasma gondii, 2.5 μM, read-out: proliferation (% of control ± SD)",113%
same,activity at 5 µM,"[3]; Toxoplasma gondii, 5 μM, read-out: proliferation (% of control ± SD)",112%
same,"viability at 72 h, 2.5 µM",[6]; 2.5 μM,118 ± 6%
same,"viability at 72 h, 5 µM",[6]; 5 μM,106 ± 9%
same,"viability at 72 h, 10 µM",[6]; 10 μM,93 ± 5%
same,proliferation (% of control ± SD),"[5]; 1 μM, ref Desiatkina et al.",^b83 ± 2%
same,proliferation (% of control ± SD),"[5]; 1.1 μM, ref Desiatkina et al.","^b^, ^∗111 ± 3%"
